Results from US6972287B1, “Method of inhibiting amyloid protein aggregation and imaging amyloid deposits” (Pfizer Inc., priority 1999, dated 2005).
Several values for one entry are separate records, joined by “and”; a condition that tells them apart may be missing. Equal values may be shown once.

Columns and labels:
Aβ (1-42) = target: T1, Aβ (1-42) (Homo sapiens, UniProt P05067); experiment: BATYM assay (Aβ (1-42) aggregation, Thioflavin T fluorescence); assay type: biochemical; settings: Aβ 1-42 final concentration 100 μM, 37° C., 1 day, letter = synthetic lot
T1 construct: Required Aβ (1-42) (California Peptide) was dried from its hexafluoroisopropanol (HFIP) stock solution; purchased California Peptide
T1 sequence (P05067 672-713 limits assumed): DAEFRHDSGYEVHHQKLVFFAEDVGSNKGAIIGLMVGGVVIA
Method in brief: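 Aβ (1-42) (100 μM final, PBS pH 7.4 from DMSO) incubated with compound at 37° C. for 1 day. Aggregation read by ThT (30 μM, glycine-NaOH pH 8.5) fluorescence, ex 440/em 485 nm; inhibition as fluorescence reduction corrected for compound-alone signal, IC50 by curve fitting from two experiments in triplicate.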

Aβ(1-40) [1] = target: T2, Aβ(1-40) (Homo sapiens, UniProt P05067); experiment: BASSR (Beta-Amyloid Self-Seeding Radioassay), inhibitors of self-seeded amyloid fibril growth; assay type: biochemical; settings: 30 μM soluble Aβ(1-40) + 125I-labeled Aβ(1-40), 37° C., 3 to 5 hours; replicate values; letter = synthetic lot; ppt = precipitate; V-shaped = inhibition followed by precipitation
T2 construct: […]; purchased Bachem, Torrance, Calif
T2 sequence (P05067 672-711 limits assumed): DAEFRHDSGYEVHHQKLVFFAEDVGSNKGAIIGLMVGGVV
Method in brief: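 Self-seeded growth of ^125I-labeled Aβ(1-40) fibrils in 50 mM sodium phosphate pH 7.5, 100 mM NaCl, 0.02% NaN3, 1 M urea; compound (3-fold dilutions from 100 μM final) preincubated 10 min on ice, then 3–5 h at 37° C. Fibrils collected by vacuum filtration on 0.2 μm filters and counted for radioactivity.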

Aβ(1-40) [2] = target: T2, Aβ(1-40); experiment: BASST (Beta-Amyloid Self-Seeding, Thioflavin T), inhibitors of self-seeded amyloid fibril growth; assay type: biochemical; settings: 30 μM soluble Aβ(1-40), 37° C., 3 to 5 hours, thioflavin T fluorescence; replicate values; letter = synthetic lot; read-out: BASST (IC50 = μM)
Method in brief: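 Self-seeded Aβ(1-40) fibril growth was run in 50 mM sodium phosphate pH 7.5, 100 mM NaCl, 0.02% NaN3, 1 M urea. Compounds were tested in 3-fold serial dilutions (top 100 μM final): 10 min on ice, then 3–5 h at 37 °C. Fibrils were read by 5 μM thioflavin T fluorescence (ex 440/em 485 nm).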

Aβ (1-40) peptide = target: T3, Aβ (1-40) peptide (Homo sapiens, UniProt P05067); experiment: BAPA (Beta-Amyloid Peptide Aggregation, pH 6.0, filtration); assay type: biochemical; settings: Aβ (1-40) 33 μM, pH 6.0, 2 to 4 hours at room temperature; replicate values; letter = synthetic lot
T3 construct: 10 μL 0.5 mg/mL Aβ (1-40) peptide in 20% HFIP
T3 sequence (P05067 672-711 limits assumed): as above
Method in brief: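 Aggregation of human Aβ (1-40) peptide was measured in an endpoint filtration assay. The peptide was first reduced to monomer with hexafluoroisopropanol (HFIP), then used at 33 μM so it would aggregate at pH 6.0, and incubated for 2 to 4 hours at room temperature. Filter plates were washed with 100 μL phosphate buffer, impregnated with Meltilex, and counted on a Microbeta counter with background correction.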

Structure (SMILES)	melting point	IC50 (Aβ (1-42))	IC50 (Aβ(1-40) [1])	IC50 (Aβ(1-40) [2])	IC50 (Aβ (1-40) peptide)
O=C(O)c1cccnc1Nc1ccc(CCc2ccc(Cl)c(Cl)c2)cc1 [Example 72, 2-{4-[2-(3,4-Dichloro-phenyl)-ethyl]-phenylamino}-nicotinic acid]	168 to 171 °C	74.8 µM	40 µM and 15 µM and 12 µM	2 µM and 2.5 µM	> 60 µM
O=C(O)c1cc([N+](=O)[O-])ccc1Nc1ccc(CCc2cccc(Cl)c2)cc1 [Example 73, 2-{4-[2-(3-Chloro-phenyl)-ethyl]-phenylamino}-5-nitro-benzoic acid]	192.5 to 194.5 °C	9.43 µM	25 µM and 35 µM and 40 µM	0.3 µM	> 60 µM
O=C(O)c1cc([N+](=O)[O-])ccc1Nc1ccc(CCc2ccc(Cl)cc2)cc1 [Example 74, 2-{4-[2-(4-Chloro-phenyl)-ethyl]-phenylamino}-5-nitro-benzoic acid]	210 to 212 °C	8.36 µM	6 µM and 18 µM (2×) and 19 µM	0.3 µM and 0.5 µM	> 60 µM
Cc1ccc(Nc2ccc(CCc3ccc(Cl)c(Cl)c3)cc2)c(C(=O)O)c1 [Example 75, 2-{4-[2-(3,4-Dichloro-phenyl)-ethyl]-phenylamino}-5-methyl-benzoic acid]	153 to 160 °C	46.2 µM	> 100 µM	2.2 µM	> 60 µM
O=C(O)c1cc([N+](=O)[O-])ccc1Nc1ccc(CCc2ccccc2Cl)cc1 [Example 76, 2-{4-[2-(2-Chloro-phenyl)-ethyl]-phenylamino}-5-nitrobenzoic acid]	236 to 238 °C	8.59 µM	3 µM	0.5 µM	> 60 µM
O=C(O)c1c(Nc2ccc(CCc3ccc(Cl)c(Cl)c3)cc2)cccc1C(F)(F)F [Example 78, 2-{4-[2-(3,4-Dichloro-phenyl)-ethyl]-phenylamino}-6-trifluoromethyl-benzoic acid]	130 to 132 °C	> 100 µM	70 µM	0.1 µM	8 µM
CN(C)c1ccc(Nc2ccc(CCc3ccc(Cl)c(Cl)c3)cc2)c(C(=O)O)c1 [Example 80, 2-{4-[2-(3,4-Dichloro-phenyl)-ethyl]-phenylamino}-5-dimethylamino-benzoic acid]	75 to 80 °C	24.8 µM	> 100 µM	4 µM	> 60 µM
O=C(O)c1ccccc1Nc1ccc(CCc2cc(Cl)cc(Cl)c2)cc1 [Example 81, 2-{4-[2-(3,5-Dichloro-phenyl)-ethyl]-phenylamino}-benzoic acid]	191 to 194 °C	48.4 µM	> 100 µM	15 µM	73 µM
O=C(O)c1ccccc1Nc1ccc(CCc2ccc(F)c(F)c2)cc1 [Example 122, 2-{4-[2-(3,4-Difluoro-phenyl)-ethyl]-phenylamino}-benzoic acid]	184 to 185 °C	> 100 µM	> 100 µM	2 µM	> 60 µM
COc1ccc(CCc2ccc(Nc3ccccc3C(=O)O)cc2)c(OC)c1 [Example 125, 2-{4-[2-(2,4-Dimethoxy-phenyl)-ethyl]-phenylamino}-benzoic acid]	180 to 181 °C	> 100 µM	82 µM	10 µM	80 µM
O=C(O)c1ccccc1Nc1ccc(CCc2ccccc2Cl)cc1 [Example 126, 2-{4-[2-(2-Chloro-phenyl)-ethyl]-phenylamino}-benzoic acid]	140 to 143 °C	84 µM and 73.9 µM	> 100 µM (2×) and 30 µM	4 µM (2×) and 5 µM and 10 µM	63 µM and > 60 µM
O=C(O)c1ccccc1Nc1ccc(CCc2ccccc2O)cc1 [Example 127, 2-{4-[2-(2-Hydroxy-phenyl)-ethyl]-phenylamino}-benzoic acid]	218 to 219 °C	> 100 µM	> 100 µM	10 µM	67 µM
O=C(O)c1cccc(Nc2ccc(CCc3ccc(Cl)c(Cl)c3)cc2)c1 [Example 131, 3-{4-[2-(3,4-Dichloro-phenyl)-ethyl]-phenylamino}-benzoic acid]	137 to 138 °C	93.5 µM	> 100 µM	10 µM	> 60 µM
COc1cc(CCc2ccc(Nc3ccccc3C(=O)O)cc2)cc(OC)c1OC [Example 133, 2-{4-[2-(3,4,5-Trimethoxy-phenyl)-ethyl]-phenylamino}-benzoic acid]	146 to 147 °C	> 100 µM	> 100 µM	> 100 µM	> 60 µM
O=C(O)c1ccccc1Nc1ccc(CCc2ccc(Oc3ccccc3)cc2)cc1 [Example 134, 2-{4-[2-(4-Phenoxy-phenyl)-ethyl]-phenylamino}-benzoic acid]	153 to 154 °C	36.5 µM	> 100 µM	2 µM	> 60 µM
O=C(O)c1ccccc1Nc1ccc(CCCCCc2ccc(Cl)c(Cl)c2)cc1 [Example 135, 2-{4-[5-(3,4-Dichloro-phenyl)-pentyl]-phenylamino}-benzoic acid]	106 to 108 °C	31.2 µM	> 100 µM	1.2 µM	> 60 µM
O=C(O)c1ccc(Nc2ccc(CCc3ccc(Cl)c(Cl)c3)cc2)c(C(=O)O)c1 [Example 144, 4-{4-[2-(3,4-Dichloro-phenyl)-ethyl]-phenylamino}-isophthalic acid]	264 to 266 °C	> 100 µM	15 µM and 25 µM	40 µM	114 µM
O=C(O)c1ccc(C(F)(F)F)cc1Nc1ccc(CCc2ccc(Cl)c(Cl)c2)cc1 [Example 145, 2-{4-[2-(3,4-Dichloro-phenyl)-ethyl]-phenylamino}-4-trifluoromethyl-benzoic acid]	134 to 136 °C	56.8 µM	10 µM and 40 µM and 30 µM	4 µM	9 µM
CN(C)c1ccc(N(C)c2ccc(CCc3ccc(Cl)c(Cl)c3)cc2)c(C(=O)O)c1 [Example 147, 2-({4-[2-(3,4-Dichloro-phenyl)-ethyl]-phenyl}-methyl-amino)-5-dimethylamino-benzoic acid]	128 to 131 °C	93.4 µM	> 100 µM	10 µM	> 60 µM
